In ChEMBL document CHEMBL3045686, “Insecticidal Activity of N-Acyl-N-(4-aryloxybenzyl)pyrazole-5-carboxamides” (2003):

Tests used:
Assay type in all cases: functional
Settings in all cases: foliar
[1] = test system: Spodoptera litura; test: Insecticidal activity Spodoptera litura third-instar larvae fed on compound pre-treated cabbage leaf disks assessed as insect mortality at 13 ppm measured 5 days after compound treatment
[2] = test system: Spodoptera litura; test: Insecticidal activity Spodoptera litura third-instar larvae fed on compound pre-treated cabbage leaf disks assessed as insect mortality at 50 ppm measured 5 days after compound treatment
[3] = test system: Spodoptera litura; test: Insecticidal activity Spodoptera litura third-instar larvae fed on compound pre-treated cabbage leaf disks assessed as insect mortality at 200 ppm measured 5 days after compound treatment
[4] = test system: Spodoptera litura; test: Insecticidal activity Spodoptera litura third-instar larvae fed on compound pre-treated cabbage leaf disks assessed as insect mortality at 3.1 ppm measured 5 days after compound treatment

| Structure (SMILES) | mortality at 13 ppm [1] | mortality at 200 ppm [3] | other results |
| --- | --- | --- | --- |
| CCc1cc(C(=O)N(Cc2ccc(Oc3ccc(C#N)cc3)cc2)C(=O)CC(C)C)n(C)n1 | > 80% |  |  |
| CCc1cc(C(=O)N(Cc2ccc(Oc3ccc(C(F)(F)F)cc3)cc2)C(C)=O)n(C)n1 | > 80% |  |  |
| CCc1cc(C(=O)N(Cc2ccc(Oc3ccc(C#N)cc3)cc2)C(=O)C(C)(C)C)n(C)n1 |  |  | mortality at 50 ppm [2]: > 80% |
| CCc1cc(C(=O)N(Cc2ccc(Oc3ccc(C)cc3)cc2)C(C)=O)n(C)n1 |  | > 80% |  |
| CC(=O)N(Cc1ccc(Oc2ccc(C#N)cc2)cc1)C(=O)c1cc(C2CC2)nn1C | > 80% |  |  |
| CC(=O)N(Cc1ccc(Oc2ccc(C#N)cc2)cc1)C(=O)c1cc(C(C)(C)C)nn1C |  | < 80% |  |
| CCc1cc(C(=O)N(Cc2ccc(Oc3ccc(C#N)cc3)cc2)C(=O)C2CC2)n(C)n1 | > 80% |  |  |
| CC(=O)N(Cc1ccc(Oc2ccc(C#N)cc2)cc1)C(=O)c1cc(C(C)C)nn1C |  |  | mortality at 50 ppm [2]: > 80% |
| CCc1cc(C(=O)N(Cc2ccc(Oc3ccc(F)cc3)cc2)C(C)=O)n(C)n1 |  | > 80% |  |
| CCCCc1cc(C(=O)N(Cc2ccc(Oc3ccc(C#N)cc3)cc2)C(C)=O)n(C)n1 |  | < 80% |  |
| CCc1cc(C(=O)N(Cc2ccc(Oc3ccc(OC)cc3)cc2)C(C)=O)n(C)n1 |  | < 80% |  |
| CC(=O)N(Cc1ccc(Oc2ccc(C#N)cc2)cc1)C(=O)c1cc(C)nn1C |  |  | mortality at 50 ppm [2]: > 80% |
| CCc1cc(C(=O)N(Cc2ccc(Oc3ccc([N+](=O)[O-])cc3)cc2)C(C)=O)n(C)n1 | > 80% |  |  |
| CCc1cc(C(=O)N(Cc2ccc(Oc3ccc(C#N)cc3)cc2)C(=O)C(C)CC)n(C)n1 (stereo unspecified) | > 80% |  |  |
| CCc1cc(C(=O)N(Cc2ccc(Oc3ccccc3)cc2)C(C)=O)n(C)n1 |  | < 80% |  |
| CC(=O)N(Cc1ccc(Oc2ccc(C#N)cc2)cc1)C(=O)c1cc(OC(C)C)nn1C |  |  | mortality at 50 ppm [2]: > 80% |

| Structure (SMILES) | mortality at 13 ppm [1] | mortality at 200 ppm [3] | other results |
| --- | --- | --- | --- |
| CCCCOc1cc(C(=O)N(Cc2ccc(Oc3ccc(C#N)cc3)cc2)C(C)=O)n(C)n1 |  | > 80% |  |
| CC(=O)N(Cc1ccc(Oc2ccc(C#N)cc2)cc1)C(=O)c1cc(CC(C)C)nn1C |  | > 80% |  |
| CCCC(=O)N(Cc1ccc(Oc2ccc(C#N)cc2)cc1)C(=O)c1cc(CC)nn1C | > 80% |  |  |
| CCc1cc(C(=O)NCc2ccc(Oc3ccc(C#N)cc3)cc2)n(C)n1 |  |  | mortality at 50 ppm [2]: > 80% |
| CCCCCc1cc(C(=O)N(Cc2ccc(Oc3ccc(C#N)cc3)cc2)C(C)=O)n(C)n1 |  | < 80% |  |
| CCOc1cc(C(=O)N(Cc2ccc(Oc3ccc(C#N)cc3)cc2)C(C)=O)n(C)n1 |  |  | mortality at 50 ppm [2]: > 80% |
| CCCCC(=O)N(Cc1ccc(Oc2ccc(C#N)cc2)cc1)C(=O)c1cc(CC)nn1C | > 80% |  |  |
| CCc1cc(C(=O)N(Cc2ccc(Oc3ccc(C#N)cc3)cc2)C(=O)C(C)C)n(C)n1 |  |  | mortality at 3.1 ppm [4]: > 80% |
| CCc1cc(C(=O)N(Cc2ccc(Oc3ccc(Cl)cc3)cc2)C(C)=O)n(C)n1 |  | > 80% |  |
| COc1cc(C(=O)N(Cc2ccc(Oc3ccc(C#N)cc3)cc2)C(C)=O)n(C)n1 |  |  | mortality at 50 ppm [2]: > 80% |
| CCc1cc(C(=O)N(Cc2ccc(Oc3ccc(C#N)cc3)cc2)C(C)=O)n(C)n1 |  |  | mortality at 3.1 ppm [4]: > 80% |
| CCC(=O)N(Cc1ccc(Oc2ccc(C#N)cc2)cc1)C(=O)c1cc(CC)nn1C | > 80% |  |  |
| CCC(C)c1cc(C(=O)N(Cc2ccc(Oc3ccc(C#N)cc3)cc2)C(C)=O)n(C)n1 (stereo unspecified) | > 80% |  |  |
| CCCc1cc(C(=O)N(Cc2ccc(Oc3ccc(C#N)cc3)cc2)C(C)=O)n(C)n1 | > 80% |  |  |
| CCc1cc(C(=O)N(Cc2ccc(Oc3ccc(SC)cc3)cc2)C(C)=O)n(C)n1 |  |  | mortality at 3.1 ppm [4]: > 80% |
